These results are taken from patent US20250313555A1, “2-SUBSTITUTED THIAZOLE AND BENZOTHIAZOLE COMPOSITIONS AND METHODS AS DUX4 INHIBITORS” (ALTAY THERAPEUTICS, INC., priority 2022, published 2025).

Type in all cases: cell-based
A short description of series [1]: Cell cytotoxicity 50 assay (CC50), MB200 cells, cell titer glo. As to conditions: human. Put shortly:
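MB200 cells were seeded at 10 k/well in F10 medium with bFGF, 15% FBS and dexamethasone. Cells were exposed to serially diluted compound (from 10 mM stock) in triplicate for 72 h at 37 °C. Viability was read by CellTiter-Glo luminescence and CC50 was fitted.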
A general note: ATP-based viability assays read luminescence as a measure of living cells.

Series [2] is described as follows: Cell cytotoxicity 50 assay (CC50), HEK cells. As to conditions: human. The method, boiled down: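 Starting from a 10 mM drug solution, serial dilutions were made in medium and added onto HEK cells, which were then incubated 72 h at 37 °C. Viability was read as CellTiter-Glo luminescence after 5 min, and CC50 was obtained by curve fitting.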
In another series the test system is MBD3L2 RNA. Kind of series: RNA isolation and qPCR to determine MBD3L2 RNA levels in FSHD cells. As to conditions: 48 hrs. Put shortly:
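FSHD cells were treated one day after seeding with a DUX4 inhibitor (11 μM or 3.6 μM) for 48 h. Total RNA was DNase-treated and reverse-transcribed with random hexamers and M-MLV. MBD3L2 was quantified by SYBR Green qPCR in triplicate against EEF1A as the reference gene.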
For orientation: Quantitative PCR measures a nucleic acid by following its amplification.

The structures appear in SMILES notation.

What is called CC50 is the concentration giving 50% cytotoxicity. Read a high CC50 as better tolerance by the cells.

As to `O=C(NCCCN1C(=O)CCC1=O)c1ccc(-c2nc3ccccc3s2)cc1` [Compound 7], the 50% cytotoxic concentration (CC50) at 72 h in series [1] and in series [2] was greater than 10 µM throughout. The “qPCR MBD3L2 Inhib at 11 µM” value in the series on MBD3L2 RNA is given as “YES”.

Take `O=C(CCN1CCCC1=O)Nc1ccc(Cc2nc3ccccc3s2)cc1` [Compound 8]: the CC50 at 72 h in series [1] and in series [2] was greater than 10 µM throughout. The “qPCR MBD3L2 Inhib at 11 µM” value in the series on MBD3L2 RNA was “YES”.

For `O=C(NCCc1cncnc1)c1ccc(-c2nc3ccccc3s2)cc1` [Compound 11], the 50% cytotoxic concentration (CC50) at 72 h in series [1] and in series [2] was greater than 10 µM each time. Further, in the series on MBD3L2 RNA, the “qPCR MBD3L2 Inhib at 11 µM” value is given as “YES”.

For the compound `O=C(NCCN1C(=O)CCC1=O)c1ccc(-c2nc3ccccc3s2)cc1` [Compound 22], the half-maximal cytotoxic concentration (CC50) at 72 h in series [1] and in series [2] was greater than 10 µM throughout. Moreover, the “qPCR MBD3L2 Inhib at 11 µM” value in the series with MBD3L2 RNA is “YES”.

On to `CC(=O)CCCCC(=O)Nc1ccc(-c2nccs2)cc1` [Compound 23], for which the cytotoxic concentration (CC50) at 72 h in series [1] and in series [2] was greater than 10 µM throughout. For the same compound, the “qPCR MBD3L2 Inhib at 11 µM” value with MBD3L2 RNA is given as “YES”.

As to `CC(=O)NCCCC(=O)NC1CCC(c2nc3ccccc3s2)CC1` (centres unmarked) [Compound 28], the 50% cytotoxic concentration (CC50) at 72 h in series [1] and in series [2] was greater than 10 µM each time. In addition, in the series with MBD3L2 RNA, the “qPCR MBD3L2 Inhib at 11 µM” value is listed as “YES”.

With `O=C(CCCc1cnco1)Nc1ccc(Cc2nc3ccccc3s2)cc1` [Compound 66], the CC50 at 72 h in series [1] and in series [2] was greater than 10 µM throughout. In addition, the “qPCR MBD3L2 Inhib at 11 µM” value in the series with MBD3L2 RNA was “YES”.

`CC(=O)NCCCC(=O)Nc1ccc(-c2nccs2)cc1` [Compound 70]: the CC50 at 72 h in series [1] and in series [2] was greater than 10 µM throughout. The “qPCR MBD3L2 Inhib at 11 µM” value in the series with MBD3L2 RNA was “YES”.

As for `CC(=O)NCCCC(=O)Nc1cccc(-c2nc3ccccc3s2)c1` [Compound 71], the cytotoxic concentration (CC50) at 72 h in series [1] and in series [2] was greater than 10 µM in each case. The “qPCR MBD3L2 Inhib at 11 µM” value with MBD3L2 RNA is on record as “YES”.

With `CC(=O)NCCCC(=O)Nc1cc(C)cc(-c2nc3ccccc3s2)c1` [Compound 72], the CC50 at 72 h in series [1] and in series [2] was greater than 10 µM in each case. Besides, the “qPCR MBD3L2 Inhib at 11 µM” value in the series on MBD3L2 RNA is listed as “YES”.

With `O=C(CCCN1C(=O)CCC1=O)NC1CC(c2nc3ccccc3s2)C1` (centres unmarked) [Compound 89], the CC50 at 72 h in series [1] and in series [2] was greater than 10 µM in each case. In addition, in the series with MBD3L2 RNA, the “qPCR MBD3L2 Inhib at 11 µM” value was “YES”.

Regarding `O=C(CCCN1C(=O)CCC1=O)NC1CCC(c2nc3ccccc3s2)C1` (centres unmarked) [Compound 90], the CC50 at 72 h in series [1] and in series [2] was greater than 10 µM in each case. In the series with MBD3L2 RNA, the “qPCR MBD3L2 Inhib at 11 µM” value is on record as “YES”.

Consider `O=C(CCCN1C(=O)CCC1=O)NCCCc1nc2ccccc2s1` [Compound 91], for which the CC50 at 72 h in series [1] and in series [2] was greater than 10 µM in each case. The “qPCR MBD3L2 Inhib at 11 µM” value in the series with MBD3L2 RNA is reported as “YES”.

Turning to `O=C(CCCN1C(=O)CCC1=O)NC1CCCC1c1nc2ccccc2s1` (centres unmarked) [Compound 92], the 50% cytotoxic concentration (CC50) at 72 h in series [1] and in series [2] was greater than 10 µM throughout. Moreover, the “qPCR MBD3L2 Inhib at 11 µM” value in the series with MBD3L2 RNA is “YES”.

`O=C(CCCN1C(=O)CCC1=O)N[C@H]1C[C@@H](c2nc3ccccc3s2)C1` [Compound 97]: the cytotoxic concentration (CC50) at 72 h in series [1] and in series [2] was greater than 10 µM throughout. Besides, the “qPCR MBD3L2 Inhib at 11 µM” value in the series on MBD3L2 RNA is “YES”.

As to `CC(=O)NCCCC(=O)Nc1cc(Cl)cc(-c2nc3ccccc3s2)c1` [Compound 101], the CC50 at 72 h in series [1] and in series [2] was greater than 10 µM each time. Besides, in the series with MBD3L2 RNA, the “qPCR MBD3L2 Inhib at 11 µM” value is “YES”.

Regarding `CC(=O)NCCCC(=O)Nc1cc(Cl)cc(-c2nc3cc(F)ccc3s2)c1` [Compound 102], the half-maximal cytotoxic concentration (CC50) at 72 h in series [1] and in series [2] was greater than 10 µM each time. In addition, the “qPCR MBD3L2 Inhib at 11 µM” value in the series on MBD3L2 RNA is recorded as “YES”.

Regarding `O=C(CCCN1C(=O)CCC1=O)Nc1nc2ccccc2s1` [Compound 108], in the series on MBD3L2 RNA, the “qPCR MBD3L2 Inhib at 11 µM” value is on record as “YES”.

With `O=C(CCCN1C(=O)CCC1=O)N[C@H]1CC[C@H](c2nc3ccccc3s2)C1` [Compound 161], the “qPCR MBD3L2 Inhib at 11 µM” value in the series with MBD3L2 RNA is listed as “YES”.
